Data as given in US20090325956A1, “Aromatic amine derivative and use thereof” (priority 2006, published 2009).
Counter-ions that a name gives are not always drawn.

Molecular target: T1, SCD (rat liver microsome) (Rattus norvegicus, UniProt P07308)
T1 construct: an enzyme reaction using rat liver microsome (20 μg) was performed for 15 min; from tissue; host or cells: rat liver microsome fraction
T1 sequence (P07308 1-358): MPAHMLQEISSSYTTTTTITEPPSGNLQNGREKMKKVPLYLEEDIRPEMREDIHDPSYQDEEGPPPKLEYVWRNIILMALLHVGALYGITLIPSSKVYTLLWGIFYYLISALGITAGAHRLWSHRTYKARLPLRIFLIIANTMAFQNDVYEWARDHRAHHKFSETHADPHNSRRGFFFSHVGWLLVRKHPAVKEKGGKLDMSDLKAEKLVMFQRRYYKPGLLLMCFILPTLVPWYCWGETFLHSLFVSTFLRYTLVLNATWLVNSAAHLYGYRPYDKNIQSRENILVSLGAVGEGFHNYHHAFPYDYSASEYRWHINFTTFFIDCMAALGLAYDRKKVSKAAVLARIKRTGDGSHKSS
Experiment: Measurement of SCD inhibitory activity using microsome (TLC detection system)
Assay type: biochemical
Settings: test compound 10 μM; rat liver microsome (20 μg), [14C] stearoyl-CoA, 15 min
Protocol: “Test Method” Measurement of SCD Inhibitory Activity Using Microsome (TLC Detection System)
A test compound (10 mM) diluted with DMSO in advance was secondarily diluted to 3/1000 with 3× buffer (300 mmol/L NaH2PO4 [pH 7.4], 450 mM KCl, 30 mM NaF, 9 mM MgCl2, 4.5 mM glutathione [reduced form], 0.3% BSA [fatty acid free, SIGMA]). The test compound (10 μL) diluted with the assay buffer was dispensed to a PP 96-deep well block, and a microsome fraction (10 μL) diluted with a microsome buffer was added thereto. The enzyme reaction was started by the addition of 10 μL of [^14C] stearoyl-CoA (American Radiolabeled Chemicals [ARC], Inc.) diluted to 10 μCi/mL with 9 mmol/L NADH. For evaluation of the compound, an enzyme reaction using rat liver microsome (20 μg) was performed for 15 min. The reaction was quenched by the addition of 10 μL of 2.5N NaOH, a plate seal was applied, and the reaction mixture was incubated overnight in a dry heater set to 65° C. to allow saponification. Solvent extraction of fatty acid was based on the Bligh&Dyer method (1). Formic acid:methanol:chloroform (1:6:3) (200 μL) was added, the state of single layer was maintained, the mixture was sufficiently stirred, and pure water (120 μL) was added to allow separation into two layers. The lower chloroform layer (10 μL) was spotted on reversed-phase TLC plate (RP-18, 1154230001, Merck Japan, Ltd.) and developed with acetonitrile:pure water:acetic acid (95:4.5:0.5). The TLC plate was dried and transferred onto an Imaging Plate (Fuji Photo Film Co., Ltd.) for not less than 5 hr. For detection, BAS-5000 (Fuji Photo Film Co., Ltd) was used and the obtained spot images were converted to numerical values using Multi Gauge Ver2.3 (Fuji Photo Film Co., Ltd), based on which the SCD activity inhibitory rate (%) was determined.

Compound | SCD activity inhibitory rate (%)
CCc1cccc(NC(=O)N2CCOC(COc3cc(F)ccc3Cl)C2)n1 (centres unmarked) [Example 202, 2-[(2-chloro-5-fluorophenoxy)methyl]-N-(6-ethylpyridin-2-yl) morpholine-4-carboxamide] | 92

Same assay, conditions: test compound 10 μM; rat liver microsome (20 μg), [14C] stearoyl-CoA, 15 min; read-out: SCD activity inhibitory rate (%)

Compound | inhibition at 10 µM [%]
Cc1cc(C)nc(NC(=O)c2ccc(Cn3cnc4ccccc43)cc2)c1 [Example 108, 4-(1H-benzimidazol-1-ylmethyl)-N-(4,6-dimethylpyridin-2-yl)benzamide] | 97
O=C(Nc1cnn(Cc2ccc(F)cc2)c1)c1cccc(COc2ccccc2)c1 [Example 149, N-[1-(4-fluorobenzyl)-1H-pyrazol-4-yl]-3-(phenoxymethyl)benzamide] | 97
O=C(Nc1ccc(Cn2cccn2)cc1)c1ccnc(COc2cc(Cl)ccc2Cl)c1 [Example 116, 2-[(2,5-dichlorophenoxy)methyl]-N-[4-(1H-pyrazol-1-ylmethyl)phenyl]isonicotinamide] | 100
O=C(Nc1cnn(CCO)c1)c1cc(COc2ccccc2Cl)ccn1 [Example 169, 4-[(2-chlorophenoxy)methyl]-N-[1-(2-hydroxyethyl)-1H-pyrazol-4-yl]pyridine-2-carboxamide] | 88
Cc1cc(C)nc(NC(=O)c2cc(COc3cc(Cl)ccc3Cl)ccn2)c1 [Example 113, 4-[(2,5-dichlorophenoxy)methyl]-N-(4,6-dimethylpyridin-2-yl)pyridine-2-carboxamide] | 86
O=C(Nc1ccc(CO)cn1)N1CCOC(COc2cc(F)ccc2Cl)C1 (centres unmarked) [Example 212, 2-[(2-chloro-5-fluorophenoxy)methyl]-N-[5-(hydroxymethyl)pyridin-2-yl]morpholine-4-carboxamide] | 97
Cc1nn(Cc2ccccc2)c2sc(C(=O)Nc3ccc(Cn4cccn4)cc3)cc12 [Example 118, 1-benzyl-3-methyl-N-[4-(1H-pyrazol-1-ylmethyl)phenyl]-1H-thieno[2,3-c]pyrazole-5-carboxamide] | 86
CN(Cc1cccc(C(=O)Nc2cnn(Cc3ccc(F)cc3)c2)c1)c1ccccc1Cl [Example 225, 3-{[(2-chlorophenyl)(methyl)amino]methyl}-N-[1-(4-fluorobenzyl)-1H-pyrazol-4-yl]benzamide] | 93
O=C(Nc1cnn(Cc2ccc(F)cc2)c1)c1cccc(CNc2ccccc2Cl)c1 [Example 201, 3-{[(2-chlorophenyl)amino]methyl}-N-[1-(4-fluorobenzyl)-1H-pyrazol-4-yl]benzamide] | 99
O=C(Nc1cnn(Cc2ccc(F)cc2)c1)c1ccc(Cn2cnc3ccccc32)cc1 [Example 99, 4-(1H-benzimidazol-1-ylmethyl)-N-[1-(4-fluorobenzyl)-1H-pyrazol-4-yl]benzamide] | 93
O=C(Nc1ccc(Cn2cccn2)cc1)N1CCCC(COc2cc(Cl)ccc2Cl)C1 (centres unmarked) [Example 167, 3-[(2,5-dichlorophenoxy)methyl]-N-[4-(1H-pyrazol-1-ylmethyl)phenyl]piperidine-1-carboxamide] | 85
Cc1cc(C)nc(NC(=O)N2CCOC(COc3ccccc3F)C2)c1 (centres unmarked) [Example 59, N-(4,6-dimethylpyridin-2-yl)-2-[(2-fluorophenoxy)methyl]morpholine-4-carboxamide trifluoroacetate] | 88
NC(=O)c1ccsc1NC(=O)c1cccc(COc2cc(Cl)ccc2Cl)c1 [Example 93, 2-({3-[(2,5-dichlorophenoxy)methyl]benzoyl}amino)thiophene-3-carboxamide] | 83
